How the values were obtained:
[1] = Tasting in mango juice drink, 1% clear mango juice; conditions: 8% sucrose, 0.1% citric acid, mango flavour 0.05%
Method: Comparison in a Mango Juice Drink
Base is 8% sucrose, 0.1% citric acid, 1% clear mango juice, and a proprietary mango flavour at 0.05%.
(§1) Samples were evaluated by expert tasters. Tasters were asked to describe the samples focusing on authentic taste, mouthfeel, fullness, salty-ness, salivation, umami, sweetness, juiciness, richness, long lastingness and fattiness.
Base is water, 8% sucrose, 0.1% citric acid, 1% clear mango juice, proprietary mango flavour @ 0.05%
(§2) Samples were evaluated by expert tasters. Tasters were asked to describe the samples focusing on authentic taste, mouthfeel, fullness, salivation, salty-ness, umami, sweetness, juiciness, richness, long lastingness and fattiness.
Base is water, 8% sucrose, 0.1% citric acid, 1% clear mango juice, proprietary mango flavour @0.05%
(§3) Samples were evaluated by expert tasters. Tasters were asked to describe the samples focusing on authentic taste, mouthfeel, fullness, salty-ness, salivation, umami, sweetness, juiciness, richness, long lastingness and fattiness
Base is 8% sucrose, 0.1% citric acid, 1% clear mango juice, proprietary mango flavour @ 0.05%
(§4) Samples were evaluated by expert tasters. Tasters were asked to describe the samples focusing on authentic taste, mouth feel, fullness, salivation, salty-ness, umami, sweetness, juiciness, richness, long lastingness and fattiness
Base is water, 8% sucrose, 0.1% citric acid, 1% clear mango juice, proprietary mango flavour @ 0.05%.
Test in a Mango Juice Drink

[2] = Tasting in Maggi beef bouillon; conditions: Maggi beef bouillon 1 tablet in 500 ml of hot water
Method: (§5) Samples were prepared and evaluated by expert tasters. Tasters were asked to describe the samples focusing on authentic taste, mouthfeel, fullness, salty-ness, salivation, umami, sweetness, juiciness, richness, long lastingness and fattiness.
Comparison in Beef Bouillon
Base is Maggi beef bouillon 1 tablet in 500 ml of hot water
as §1, §2, §3, §4

[3] = Tasting in strawberry drink; conditions: 7% sucrose, 0.1% citric acid, strawberry flavour 0.015%
Method: as §5
Comparison in a Strawberry Drink
Base is 7% sucrose, 0.1% citric acid, and a proprietary strawberry flavour @ 0.015%
as §1
Base is water, 7% sucrose, 0.1% citric acid, proprietary strawberry flavour @ 0.015%
as §2
Test in a Strawberry Drink
Base is 7% sucrose, 0.1% citric acid, proprietary strawberry flavour @ 0.015%

[4] = Tasting in vanilla milk 0.15% fat; conditions: 1 ppm, 4% sucrose, Vaniline 10 ppm + vanilla extract 0.03%
Method: as §5
Base: Milk 0.15% fat, sweetened with 4% sucrose by weight, flavoured with proprietary
Vaniline flavour @ 10 ppm+Vanilla ext. @ 0.03%
as §1
Comparison in a Vanilla Milk Drink
Vaniline @ 10 ppm+Vanilla extract @ 0.03%
Base: Milk 0.15% fat, sweetened with 4% sucrose by weight, flavoured with proprietary Vaniline @ 10 ppm+Vanilla extract @ 0.03%

[5] = Tasting in chicken bouillon; conditions: 0.7% salt, 0.5% fat
Method: (§6) The following formulations were prepared and tasted by trained panelists.
Standard Chicken bouillon base, 0.7% salt, 0.5% fat
Samples were prepared and evaluated by expert tasters. Tasters were asked to describe the samples focusing on authentic taste, mouthfeel, fullness, salivation, salty-ness, umami, sweetness, juiciness, richness, long lastingness and fattiness.
Test in Soups and Bouillons
Standard Chicken Bouillon Base

[6] = Test in peach flavoured drink; conditions: 1 ppm; water, 8% sugar, 0.1% citric acid, peach flavour 0.05%
Method: as §5
Test in Peach Flavoured Drink:
Base is water, 8% sugar, 0.1% citric acid, and proprietary peach flavour at 0.05%
as §1
Comparison in a Peach Drink
Base is water, 8% sugar, 0.1% citric acid, proprietary peach flavour at 0.05%
as §2

[7] = Tasting in strawberry flavoured sugar sweetened yoghurt; conditions: 2 ppm, 1.5% fat yoghurt, 8% sucrose, strawberry flavour 0.015%
Method: Strawberry Flavoured Sugar Sweetened Yoghurt
In a 1.5% fat yoghurt base, sweetened with 8% sucrose by weight, flavoured with a proprietary strawberry flavour @ 0.015% several different N-acyl aminoacids were added.
as §5
Test in a Strawberry Yoghurt
Base: Yoghurt 1.5% fat yoghurt, 8% sucrose, proprietary strawberry flavour @ 0.015%
as §2

[8] = Test in chocolate flavoured drink; conditions: 0.5 ppm; water, 4% sucrose, chocolate flavour 0.03%
Method: as §5
Test in Chocolate Flavoured Drink:
Base: Water, 4% sucrose, proprietary chocolate flavor at 0.03%
as §1
Test in Chocolate Flavoured Drink Flavoured
Base: Water, 4% sucrose, proprietary chocolate flavour @ 0.03%

[9] = Test in pear flavoured drink; conditions: 0.5 ppm; water, 7% sugar, 0.1% citric acid, pear flavour 0.025%
Method: as §5
Test in Pear Flavoured Drink:
Base: water, 7% sugar, 0.1% citric acid, proprietary pear flavour at 0.025%
as §1
Comparison in a Pear Drink
Base is water, 8% sugar, 0.1% citric acid, proprietary pear flavour at 0.025%

[10] = Tasting in beef bouillon base; conditions: 0.5 PPM in beef bouillon base 1.0% salt, 0.5% fat
Method: as §6
Beef Bouillon base 1.0% salt, 0.5% fat

[11] = Test in orange beverage; conditions: 1 ppm; water, 7% sugar (8% sucrose elsewhere in the source), 0.1% citric acid, orange flavour 0.06%
Method: as §1
Base is water, 7% sugar, 0.1% citric acid, proprietary orange flavour @ 0.06%.
as §3
Base is water, 7% sugar, 0.1% citric acid, proprietary orange flavour @ 0.06%
as §4
Samples were evaluated by expert tasters. Tasters were asked to describe the samples focusing on authentic taste, mouthfeel, fullness, salivation, sweetness, juiciness, richness, long lastingness and fattiness
Comparison in an Orange Drink
Base: water, 8% sucrose, 0.1% citric acid, proprietary orange flavour @ 0.06%.

[12] = 0.2 PPM in chicken bouillon base

## CCCCCCCC/C=C\CCCCCCCC(=O)NCCC(=O)O [C18:1-beta ala]
[1]; 2 ppm
  tasting result: more juicy, longlasting
[2]; 2 ppm
  tasting result: more salty salivating umami

## CCCCCCCCCCCCCCCCCC(=O)NC(CCC(=O)O)C(=O)O (centres unmarked) [C18:0-glu, N-stearoyl-Glu]
[1]; 1 ppm
  tasting result: fatty, full, sweet juicy
[3]; 0.5 ppm
  tasting result: fruity, juicy, long lasting
[4]
  tasting result: full, fatty, whipped cream like

## CCCCCCCC/C=C\CCCCCCCC(=O)N[C@@H](CC(C)C)C(=O)O [C18:1-leu, N-oleoyl-L-leucine]
[1]; 2 ppm
  tasting result: very long lasting, ripe, fruity, juicy

## CC(C)=CCC/C(C)=C/C(=O)NC1(C(=O)O)CC1 [Geranoyl ACCA, N-geranoyl 1-amino-cyclopropyl carboxylic acid]
[5]; [12]
  tasting result: Saltier Umami lingering Mouthfeel

## CCCCCC/C=C\CCCCCCCC(=O)NC(CCC(=O)O)C(=O)O (centres unmarked) [C16:1-glu, N-palmitenoyl-Glu]
[1]; 1 ppm
  tasting result: full, heavy, jammy, long lasting
[3]; 0.5 ppm
  tasting result: full, fatty, creamy
[4]
  tasting result: full, fatty, creamy, sweet vanilla

## CCCCCCCCCC(=O)NC1(C(=O)O)CC1 [C10:0 ACCA, N-decanoyl 1-amino-cyclopropyl carboxylic acid]
[5]; [12]
  tasting result: More umami lingering body
[5]; 0.5 PPM in chicken bouillon base
  tasting result: Nice strong salty, Umami lingering body, better chicken profile

## CCCCC/C=C\C/C=C\CCCCCCCC(=O)N[C@@H](C)C(=O)O [C18:2-ala, N-linoleoyl-L-alanine]
[1]; 1 ppm
  tasting result: fatty, juicy, apple skin taste
[3]; 0.5 ppm
  tasting result: creamy, fruity, juicy, green, long lasting, strawberry
[6]
  tasting result: enhanced sulfur note, powdery, soft peach skin like, authentic peach, slight raspberry note

## CCCCCCCC/C=C\CCCCCCCC(=O)N[C@H](C(=O)O)C(C)C [C18:1-val, N-oleoyl-L-valine]
[6]
  tasting result: tropical, fatty, skin, juicy

## CCCCCCCCCCCCCCCC(=O)NCCC(=O)O [C16:0-beta ala]
[1]; 2 ppm
  tasting result: more juicy
[2]; 2 ppm
  tasting result: more salty salivating umami

## CCCCCCCCCCCCCCCCCC(=O)NC(CC(=O)O)C(=O)O (centres unmarked) [C18:0-asp, N-stearoyl-Asp]
[1]; 1 ppm
  tasting result: fatty, fruity, long lasting
[2]; 1 ppm
  tasting result: lot off fullness and body, less salty

## CCCCCCCCCCCCCCCCCC(=O)NC(CCC(N)=O)C(=O)O (centres unmarked) [C18:0-gln, N-stearoyl-Gln]
[7]
  tasting result: Sweet full juicy, nice, slight enhanced sulphury

## CCCCCCCCCCCCCCCC(=O)N[C@H](C(=O)O)C(C)C [C16:0-val, N-palmitoyl-L-valine]
[6]
  tasting result: very juicy

## CCCCCC/C=C\CCCCCCCC(=O)NCCCC(=O)O [C16:1-gaba]
[1]; 2 ppm
  tasting result: juicy, rich, full authentic
[3]; 2 ppm
  tasting result: juicy, fruity, fatty, long lasting, good mouthfeel

## CCCCCCCCCCCCCCCC(=O)N1CCCC1C(=O)O (centres unmarked) [C16:0-pro, N-palmitoyl-Pro]
[1]; 1 ppm
  tasting result: overripe, orange like, long lasting after taste
[2]; 1 ppm
  tasting result: more salty, full, darker, more meat-like

## CCCCCCCCCCCCCCCC(=O)NC(CCC(=O)O)C(=O)O (centres unmarked) [C16:0-glu, N-palmitoyl-Glu]
[1]; 1 ppm
  tasting result: slightly more juicy impact
[4]
  tasting result: ice cream like, sweet, very full
[8]
  tasting result: sweet, fatty cocoa, sulphur is enhanced, enhanced nib note
[9]
  tasting result: fatty long lasting
[6]
  tasting result: fruity, nice juicy, sweet, soft peach skin

## CCCCCCCC/C=C\CCCCCCCC(=O)NC(CCC(N)=O)C(=O)O (centres unmarked) [C18:1-gln]
[7]
  tasting result: Juicy, nice, fatty aftertaste
[3]; 0.5 ppm
  tasting result: more juicy, creamy, fruity long lasting

## CCCCCCCCCCCCCCCCCC(=O)N[C@@H](CO)C(=O)O [C18:0-ser, N-stearoyl-Ser]
[1]; 1 ppm
  tasting result: nice sweet, pineapple, long lasting
[2]; 1 ppm
  tasting result: more salty, richer, more umami

## CCCCC/C=C\C/C=C\CCCCCCCC(=O)NC(CCSC)C(=O)O (centres unmarked) [C18:2-met, N-linoleoyl-Met]
[1]; 1 ppm
  tasting result: fresh nice juicy
[2]; 1 ppm
  tasting result: salivating salty, umami

## CCCCCCCCCCCCCCCCCC(=O)NCCCC(=O)O [C18:0-gaba]
[7]
  tasting result: juicy full, jammy
[3]; 0.5 ppm
  tasting result: mild creamy, fruity, juicy and long lasting

## CCCCCC/C=C\CCCCCCCC(=O)NC(CC(C)C)C(=O)O [C16:1 leu, N-palmitenoyl-L-leucine]
[10]
  tasting result: Strong salty and rich

## CCCCC/C=C\C/C=C\CCCCCCCC(=O)NCCC(=O)O [C18:2-beta ala]
[1]; 2 ppm
  tasting result: full long lasting nice juicy, almost a bit salty
[2]; 2 ppm
  tasting result: salty, savoury, full

## CCCCCCCC(=O)NC(CCSC)C(=O)O (centres unmarked) [C8:0-met]
[1]; 1 ppm
  tasting result: green fresh, no additional body
[2]; 1 ppm
  tasting result: more salty, no additional fullness

## CCCCCCCC/C=C\CCCCCCCC(=O)NC(CC(=O)O)C(=O)O (centres unmarked) [C18:1-asp]
[1]; 1 ppm
  tasting result: juicy fruit like
[2]; 1 ppm
  tasting result: not special

## CCCCCCCCCCCCCCCC(=O)NC(CCSC)C(=O)O (centres unmarked) [C16:0-met, N-palmitoyl-Met]
[1]; 1 ppm
  tasting result: fatty, full body, juicy, metallic
[2]; 1 ppm
  tasting result: salty, full, nice salivating, lingering
[11]
  tasting result: slightly metallic, fresh

## CCCCC/C=C\C/C=C\CCCCCCCC(=O)NCC(=O)O [C18:2-gly, N-linoleoyl-glycine]
[11]
  tasting result: very juicy, salivating, authentic, long lasting and sweet aftertaste

## CCCCCCCCCCCCCCCC(=O)N[C@@H](CC(C)C)C(=O)O [C16:0-leu, N-palmitoyl-L-leucine]
[1]; 2 ppm
  tasting result: very fruity, ripe mango taste, strawberry note

## CCCCCCCCCCCCCCCC(=O)NCC(=O)O [C16:0-gly]
[11]
  tasting result: sweet after taste juicy

## CCCCC/C=C\C/C=C\CCCCCCCC(=O)NC(CO)C(=O)O (centres unmarked) [C18:2-ser, N-linoleoyl-Ser]
[1]; 1 ppm
  tasting result: apple note, less acidic, juicy
[2]; 1 ppm
  tasting result: more umami, slightly more salty, sweet
[11]
  tasting result: very fresh, authentic, slightly less sweet, more juicy

## CCCCC/C=C\C/C=C\CCCCCCCC(=O)NC1(C(=O)O)CC1 [C18:2 ACCA, N-linoleoyl 1-amino-cyclopropyl carboxylic acid]
[5]; [12]
  tasting result: Creamy, full body, more fatty chicken

## CCCCC/C=C\C/C=C\CCCCCCCC(=O)N[C@H](C(=O)O)C(C)C [C18:2-val, N-linoleoyl-L-valine]
[10]
  tasting result: more body and mouthfeel, more umami
[1]; 1 ppm
  tasting result: ripe, very juicy nice, full body, long lasting
[2]; 1 ppm
  tasting result: more umami, salivating, salty

— patent publication US11091429B2, “Organic compounds” (Givaudan SA, priority 2012, dated 2021)
